The target in assay [1] is T1, D(3) dopamine receptor (Homo sapiens, UniProt P35462). As to the kind of experiment: Functional activity in vitro using microphysiometry at Dopamine receptor D3; Agonist. To be noted: filed as agonist.
Assay [2] concerns the target T2, D(2) dopamine receptor (Homo sapiens, UniProt P14416). The assay is described as follows: Tested for the ability to displace [125I]iodosulpiride from human cloned Dopamine receptor D2, expressed in CHO cells. Type of assay: cell-based.
Assay [3] addresses T1, D(3) dopamine receptor.
Description: Tested for the ability to displace [125I]iodosulpiride from human cloned Dopamine receptor D3, expressed in CHO cells
Assay [4] has as its target T1, D(3) dopamine receptor. The assay is described as follows: Tested for the functional activity in vitro using microphysiometry at Dopamine receptor D3; antagonist. The following applies: filed as antagonist.
Assay [5] concerns the target T2, D(2) dopamine receptor. As to the kind of experiment: Displacement of [125I]iodosulpiride from human Dopamine receptor D2 expressed in CHO cells. Type of assay: cell-based.

T2 sequence (P14416 whole entry): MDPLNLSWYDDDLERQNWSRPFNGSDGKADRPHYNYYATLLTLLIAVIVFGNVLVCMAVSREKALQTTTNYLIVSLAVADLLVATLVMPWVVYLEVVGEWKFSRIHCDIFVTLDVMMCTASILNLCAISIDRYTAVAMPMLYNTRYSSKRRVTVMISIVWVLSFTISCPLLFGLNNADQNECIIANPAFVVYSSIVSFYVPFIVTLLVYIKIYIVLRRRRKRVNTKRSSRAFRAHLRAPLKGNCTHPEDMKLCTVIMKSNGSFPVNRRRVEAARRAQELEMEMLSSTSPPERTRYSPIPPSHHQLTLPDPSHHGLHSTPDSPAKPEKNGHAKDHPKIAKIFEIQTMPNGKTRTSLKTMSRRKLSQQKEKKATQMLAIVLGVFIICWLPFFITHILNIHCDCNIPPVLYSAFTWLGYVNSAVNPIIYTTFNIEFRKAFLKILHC
T1 sequence (P35462 whole entry): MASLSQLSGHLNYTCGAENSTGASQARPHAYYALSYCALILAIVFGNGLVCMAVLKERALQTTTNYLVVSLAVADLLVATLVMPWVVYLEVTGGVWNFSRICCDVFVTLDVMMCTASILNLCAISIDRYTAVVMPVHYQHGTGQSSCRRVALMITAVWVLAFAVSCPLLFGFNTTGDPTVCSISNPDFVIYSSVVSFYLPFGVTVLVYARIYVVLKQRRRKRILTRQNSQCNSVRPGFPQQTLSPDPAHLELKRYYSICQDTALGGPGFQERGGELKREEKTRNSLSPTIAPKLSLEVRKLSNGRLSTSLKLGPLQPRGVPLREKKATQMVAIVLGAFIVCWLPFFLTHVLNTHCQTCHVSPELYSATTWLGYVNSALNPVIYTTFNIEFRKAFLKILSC

With `CCCN(CCCCNC(=O)c1ccc(-c2ccccc2)cc1)C1CCc2ncnc(OC)c2C1` (stereo not given), the Function result on D(3) dopamine receptor [1] is “Agonist”. Moreover, the inhibitory constant (Ki) was 1580 nM on D(2) dopamine receptor [2] and 3.16 nM at D(3) dopamine receptor [3].

With `CCCN(CCCCNC(=O)c1ccc(-c2ccccc2)cc1)C1CCc2nc(C)ncc2C1` (stereo not given), the Function result on D(3) dopamine receptor [1] is “Agonist”. For the same molecule, the Ki is 2510 nM on D(2) dopamine receptor [2] and 7.94 nM on D(3) dopamine receptor [3].

As for `CCCN(CCCCNC(=O)c1ccc(-c2ccccc2)cc1)C1CCc2nc(C(C)(C)C)ncc2C1` (stereo not given), the Function result at D(3) dopamine receptor [4] was “Antagonist”. For the same molecule, the Ki at D(2) dopamine receptor [2] is 1580 nM; at D(3) dopamine receptor [3], 12.6 nM.

As for `CN(CCCCNC(=O)c1ccc(-c2ccccc2)cc1)C1CCc2nc(N)ncc2C1` (stereo not given), at D(3) dopamine receptor [1], the Function entry is “Agonist”. In addition, the Ki is 1580 nM on D(2) dopamine receptor [2] and 10 nM on D(3) dopamine receptor [3].

On D(3) dopamine receptor [3], `CCCNC1CCc2nc(N)sc2C1` (stereo not given) showed a Ki of 10 nM.

As for `CCCN1COC[C@@H]2c3cc(O)ccc3OC[C@H]21`, the Ki on D(2) dopamine receptor [5] is 2510 nM; at D(3) dopamine receptor [3], 25.1 nM.

For the molecule `CCCN(CCCCNC(=O)c1ccc(-c2ccccc2)cc1)C1CCc2nc(N)sc2C1` (stereo not given), the Function entry on D(3) dopamine receptor [1] is “Agonist”. Further, the figures for the Ki at D(2) dopamine receptor [2] and at D(3) dopamine receptor [3] were 200 nM and 0.501 nM, respectively.

Take `CCCN(CCCCNC(=O)c1ccc(-c2ccccc2)cc1)C1CCc2ncncc2C1` (stereo not given): the Ki is 1260 nM on D(2) dopamine receptor [2] and 126 nM at D(3) dopamine receptor [3].

`CCCN(CCCCNC(=O)c1ccc(-c2ccccc2)cc1)C1CCc2nc(N)ncc2C1` (stereo not given): at D(3) dopamine receptor [1], the Function entry was “Agonist”. The Ki is 158 nM on D(2) dopamine receptor [2] and 0.794 nM at D(3) dopamine receptor [3].

Turning to `CCCN(CCCCNC(=O)c1ccc(-c2ccccc2)cc1)C1CCc2nc(N(C)C)ncc2C1` (stereo not given), at D(3) dopamine receptor [4], the Function entry was “Antagonist”. Also, the Ki was 1580 nM on D(2) dopamine receptor [2] and 25.1 nM at D(3) dopamine receptor [3].

For `CCCN(CCCCNC(=O)c1ccc(-c2ccccc2)cc1)C1CCc2nc(NC)ncc2C1` (stereo not given), the Function entry at D(3) dopamine receptor [1] is “Agonist”. Besides, the Ki was 2510 nM on D(2) dopamine receptor [2] and 15.8 nM at D(3) dopamine receptor [3].

Take `CCCN(CCCCNC(=O)c1ccc(-c2ccccc2)cc1)C1CCc2nc(SC)ncc2C1` (stereo not given): the Function entry at D(3) dopamine receptor [4] is “Antagonist”. Besides, the results for the Ki on D(2) dopamine receptor [2] and at D(3) dopamine receptor [3] were 1260 nM and 15.8 nM, respectively.

With `CCCN(CCCCNC(=O)c1ccc(-c2ccccc2)cc1)C1CCc2n[nH]cc2C1` (stereo not given), at D(3) dopamine receptor [1], the Function result is “Agonist”. Further, the Ki at D(2) dopamine receptor [2] was 501 nM; on D(3) dopamine receptor [3] it was 3.16 nM.

These data come from ChEMBL document CHEMBL1131981, “Heterocyclic analogues of 2-aminotetralins with high affinity and selectivity for the dopamine D3 receptor” (Bioorg Med Chem Lett, 1999).
